In patent US20240384268A1, “Oligonucleotides” (Hudson Institute of Medical Research, priority 2021, published 2024):
In the oligonucleotide strings, read from the 5' end, every base follows the letter of its sugar. An asterisk marks phosphorothioate; unmarked linkages are phosphodiester. Other units and linkages are bracketed, terminal groups are in braces. A string of capitals states the bases alone. d = 2'-deoxy (DNA); m = 2'-O-methyl

Target: T1, cGAS (Homo sapiens, UniProt Q8N884)
Test: ISD70-driven IP-10 (and IFN-β) production in THP-1 cells, ELISA
Assay type: cell-based
Set-up: endogenous in cells; host or cells: THP-1 (undifferentiated)
Settings: THP-1; 100 nM ASO overnight, then ISD70 2.5 μg/ml 7-8 h; percentage of ISD70 only

T1 sequence (Q8N884 whole entry): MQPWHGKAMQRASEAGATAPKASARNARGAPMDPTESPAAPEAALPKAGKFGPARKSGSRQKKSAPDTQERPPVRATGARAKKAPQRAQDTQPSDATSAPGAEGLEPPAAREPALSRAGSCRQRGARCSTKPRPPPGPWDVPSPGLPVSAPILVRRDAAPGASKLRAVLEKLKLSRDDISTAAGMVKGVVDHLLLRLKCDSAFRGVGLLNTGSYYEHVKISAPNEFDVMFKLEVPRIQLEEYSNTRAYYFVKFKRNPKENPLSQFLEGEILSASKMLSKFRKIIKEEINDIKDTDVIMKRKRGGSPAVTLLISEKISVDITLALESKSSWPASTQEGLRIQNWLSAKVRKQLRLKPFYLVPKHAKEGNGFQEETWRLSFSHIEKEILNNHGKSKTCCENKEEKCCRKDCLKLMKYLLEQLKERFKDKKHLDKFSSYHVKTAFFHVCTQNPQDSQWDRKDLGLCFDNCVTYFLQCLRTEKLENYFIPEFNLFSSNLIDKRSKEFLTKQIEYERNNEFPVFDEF

Substance	cGAS-100 nM: averaged IP-10 levels relative to ISD70 [%]
mG*mA*mU*mG*mG*T*T*C*C*A*G*T*C*C*C*mU*mC*mU*mU*mC (GAUGGTTCCAGTCCCUCUUC; antisense; sugars from the 5' end m5 d10 m5, all phosphorothioate, methylation of C not given here) [[LINC-PINT]1497.1]	26.05
mU*mG*mA*mC*mA*T*T*T*C*G*T*G*G*C*T*mC*mC*mU*mA*mC (mU*mG*mA*mC*mA*dT*dT*dT*dC*dG*dT*dG*dG*dC*dT*mC*mC*mU*mA*mC; antisense) [[LINC-PINT]523 KL]	39.34
mU*mG*mA*mU*mG*A*T*G*C*T*T*G*C*A*G*mG*mA*mG*mG*mC (mU*mG*mA*mU*mG*dA*dT*dG*dC*dT*dT*dG*dC*dA*dG*mG*mA*mG*mG*mC) [[LINC-PINT|283.1]	85.85
mU*mG*mG*mC*mG*T*A*G*T*T*T*C*T*C*T*mU*mC*mC*mU*mC (mU*mG*mG*mC*mG*dT*dA*dG*dT*dT*dT*dC*dT*dC*dT*mU*mC*mC*mU*mC; antisense) [[LINC-PINT]937.1]	70.97
mU*mG*mU*mG*mA*A*A*A*G*A*T*T*A*T*C*mU*mU*mC*mU*mU (UGUGAAAAGATTATCUUCUU; sugars from the 5' end m5 d10 m5, all phosphorothioate, methylation of C not given here) [[CDKN2B-AS1]2137]	40.72
mU*mG*mU*mU*mU*C*C*C*C*G*G*A*G*A*G*mC*mA*mA*mU*mG (UGUUUCCCCGGAGAGCAAUG; antisense; sugars from the 5' end m5 d10 m5, all phosphorothioate, methylation of C not given here) [[LINC-PINT]501 KL]	57.81
mU*mU*mA*mA*mA*T*A*A*T*C*T*A*G*T*T*mU*mG*mA*mA*mG (UUAAATAATCTAGTTUGAAG; sugars from the 5' end m5 d10 m5, all phosphorothioate, methylation of C not given here) [[CDKN2B-AS1]132]	52.20
mU*mU*mA*mG*mC*T*C*C*T*T*G*C*C*T*C*mG*mU*mU*mC*mC (mU*mU*mA*mG*mC*dT*dC*dC*dT*dT*dG*dC*dC*dT*dC*mG*mU*mU*mC*mC; antisense) [[LINC-PINT] 1222]	63.80
mU*mU*mC*mU*mC*T*C*T*G*G*T*C*C*C*A*mU*mC*mC*mC*mU (mU*mU*mC*mU*mC*dT*dC*dT*dG*dG*dT*dC*dC*dC*dA*mU*mC*mC*mC*mU; antisense) [[LINC-PINT]111]	77.41
mU*mU*mG*mG*mC*C*T*G*T*G*G*A*T*G*C*mU*mU*mU*mG*mU (mU*mU*mG*mG*mC*dC*dT*dG*dT*dG*dG*dA*dT*dG*dC*mU*mU*mU*mG*mU) [[LINC-PINT]2673.1]	68.35
mU*mU*mG*mU*mG*A*A*A*A*G*A*T*T*A*T*mC*mU*mU*mC*mU (mU*mU*mG*mU*mG*dA*dA*dA*dA*dG*dA*dT*dT*dA*dT*mC*mU*mU*mC*mU) [[CDKN2B-AS1]2138]	69.36
mU*mU*mU*mG*mA*A*A*T*T*C*A*G*A*A*G*mA*mU*mU*mU*mG (mU*mU*mU*mG*mA*dA*dA*dT*dT*dC*dA*dG*dA*dA*dG*mA*mU*mU*mU*mG) [[LINC PINT|2690]	84.15

Same assay, conditions: THP-1; 2′OMe or PS oligos, 100-250 nM, pre-treatment as in figure legends; ISD70 2.5 μg/ml

Substance	inhibition of ISD70-driven IP-10 production (in words)
mG*mA*mU*mG*mG*T*T*C*C*A*G*T*C*C*C*mU*mC*mU*mU*mC (GAUGGTTCCAGTCCCUCUUC; antisense; sugars from the 5' end m5 d10 m5, all phosphorothioate, methylation of C not given here) [[LINC-PINT]1497.1]	significant effect

Target: T1, cGAS
Test: ISD70-driven IP-10 production in HT-29 cells, ELISA
Assay type: cell-based
Set-up: endogenous in cells
Settings: 187.5 nM ASO overnight, ISD70 24 h

Substance	reduction of ISD70-dependent IP-10 production [%]
mG*mA*mU*mG*mG*T*T*C*C*A*G*T*C*C*C*mU*mC*mU*mU*mC (GAUGGTTCCAGTCCCUCUUC; antisense; sugars from the 5' end m5 d10 m5, all phosphorothioate, methylation of C not given here) [[LINC-PINT]1497.1]	25
